Results as given in the supplement of paper PMC10307832.

How the values were obtained:
Experiment in all cases: relative viability (nuclei count vs DMSO), 5 days (fraction); higher = more cells survive
BEN = test system: BEN
Method in brief: (§1)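 Lung cancer cell lines were seeded in 1536-well plates and dosed by pin tool the next day, with either a single drug or a fixed anchor-drug dose combined with five library-drug doses (not always all listed) spaced in √10 steps. Five days later, one step fixed the cells and stained their nuclei (final 0.05% Triton X-100, 1% formaldehyde, 1 ug/ml Hoechst), and nuclei were counted on 4× images. Relative viability is the nuclei count in treated wells divided by the count in vehicle wells, and each value is the median of duplicate plates.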

COR-L23 = test system: COR-L23
Method in brief: as §1

HCC-366 = test system: HCC-366
Method in brief: as §1

LOU-NH91 = test system: LOU-NH91
Method in brief: as §1

LU99A = test system: LU99A
Method in brief: as §1

NCI-H1355 = test system: NCI-H1355
Method in brief: as §1

NCI-H1437 = test system: NCI-H1437
Method in brief: as §1

NCI-H1650 = test system: NCI-H1650
Method in brief: as §1

NCI-H1651 = test system: NCI-H1651
Method in brief: as §1

NCI-H1734 = test system: NCI-H1734
Method in brief: as §1

NCI-H1793 = test system: NCI-H1793
Method in brief: as §1

NCI-H1975 = test system: NCI-H1975
Method in brief: as §1

NCI-H2023 = test system: NCI-H2023
Method in brief: as §1

NCI-H2085 = test system: NCI-H2085
Method in brief: as §1

NCI-H2342 = test system: NCI-H2342
Method in brief: as §1

NCI-H358 = test system: NCI-H358
Method in brief: as §1

NCI-H441 = test system: NCI-H441
Method in brief: as §1

NCI-H460 = test system: NCI-H460
Method in brief: as §1

NCI-H838 = test system: NCI-H838
Method in brief: as §1

SK-LU-1 = test system: SK-LU-1
Method in brief: as §1

With `CC(=O)O[C@@]12CO[C@@H]1C[C@H](O)[C@@]1(C)C(=O)[C@H](O)C3=C(C)[C@@H](OC(=O)[C@H](O)[C@@H](NC(=O)OC(C)(C)C)c4ccccc4)C[C@@](O)([C@@H](OC(=O)c4ccccc4)[C@H]21)C3(C)C` [Docetaxel] + Nc1ncn([C@H]2C[C@H](O)[C@@H](CO)O2)c(=O)n1 [Decitabine] (partner 2 µM) the relative viability (BEN; first compound 0.0002 µM) was 0.522, the relative viability (BEN; first compound 0.000632 µM) was 0.621 and the relative viability (BEN; first compound 0.002 µM) was 0.426. The relative viability (BEN; first compound 0.006325 µM) was 0.417, the relative viability (BEN; first compound 0.02 µM) was 0.325 and the relative viability (COR-L23; first compound 0.0002 µM) was 0.39. It also gave a relative viability (COR-L23; first compound 0.000632 µM) of 0.443, a relative viability (COR-L23; first compound 0.002 µM) of 0.291 and a relative viability (COR-L23; first compound 0.02 µM) of 0.121. The relative viability (HCC-366; first compound 0.0002 µM) was 0.292, the relative viability (HCC-366; first compound 0.000632 µM) was 0.12 and the relative viability (HCC-366; first compound 0.002 µM) was 0.107. It also gave a relative viability (HCC-366; first compound 0.006325 µM) of 0.0547, a relative viability (HCC-366; first compound 0.02 µM) of 0.0292 and a relative viability (LOU-NH91; first compound 0.0002 µM) of 0.822. For the same compound, the relative viability (LOU-NH91; first compound 0.000632 µM) was 0.841, the relative viability (LOU-NH91; first compound 0.002 µM) was 0.621 and the relative viability (LOU-NH91; first compound 0.006325 µM) was 0.518. It also gave a relative viability (LOU-NH91; first compound 0.02 µM) of 0.379, a relative viability (LU99A; first compound 0.0002 µM) of 0.87 and a relative viability (LU99A; first compound 0.000632 µM) of 0.872. For the same compound, the relative viability (LU99A; first compound 0.002 µM) was 0.466, the relative viability (LU99A; first compound 0.006325 µM) was 0.363 and the relative viability (LU99A; first compound 0.02 µM) was 0.204. It also gave a relative viability (NCI-H1355; first compound 0.0002 µM) of 0.35, a relative viability (NCI-H1355; first compound 0.000632 µM) of 0.365 and a relative viability (NCI-H1355; first compound 0.002 µM) of 0.286. It also gave a relative viability (NCI-H1355; first compound 0.006325 µM) of 0.276, a relative viability (NCI-H1355; first compound 0.02 µM) of 0.179 and a relative viability (NCI-H1437; first compound 0.0002 µM) of 0.526. The relative viability (NCI-H1437; first compound 0.000632 µM) was 0.629, the relative viability (NCI-H1437; first compound 0.002 µM) was 0.406 and the relative viability (NCI-H1437; first compound 0.006325 µM) was 0.307. For the same compound, the relative viability (NCI-H1437; first compound 0.02 µM) was 0.196, the relative viability (NCI-H1650; first compound 0.0002 µM) was 0.376 and the relative viability (NCI-H1650; first compound 0.000632 µM) was 0.323. It also gave a relative viability (NCI-H1650; first compound 0.002 µM) of 0.246, a relative viability (NCI-H1650; first compound 0.006325 µM) of 0.2 and a relative viability (NCI-H1650; first compound 0.02 µM) of 0.193. It also gave a relative viability (NCI-H1651; first compound 0.0002 µM) of 0.458, a relative viability (NCI-H1651; first compound 0.000632 µM) of 0.547 and a relative viability (NCI-H1651; first compound 0.002 µM) of 0.299. The relative viability (NCI-H1651; first compound 0.006325 µM) was 0.173, the relative viability (NCI-H1734; first compound 0.0002 µM) was 0.492 and the relative viability (NCI-H1734; first compound 0.000632 µM) was 0.431. The relative viability (NCI-H1734; first compound 0.002 µM) was 0.359, the relative viability (NCI-H1734; first compound 0.006325 µM) was 0.307 and the relative viability (NCI-H1734; first compound 0.02 µM) was 0.218. The relative viability (NCI-H1793; first compound 0.0002 µM) was 0.532, the relative viability (NCI-H1793; first compound 0.000632 µM) was 0.359 and the relative viability (NCI-H1793; first compound 0.002 µM) was 0.278. The relative viability (NCI-H1793; first compound 0.006325 µM) was 0.2, the relative viability (NCI-H1793; first compound 0.02 µM) was 0.18 and the relative viability (NCI-H1975; first compound 0.0002 µM) was 0.37. The relative viability (NCI-H1975; first compound 0.000632 µM) was 0.389, the relative viability (NCI-H1975; first compound 0.002 µM) was 0.223 and the relative viability (NCI-H1975; first compound 0.006325 µM) was 0.177. It also gave a relative viability (NCI-H1975; first compound 0.02 µM) of 0.122, a relative viability (NCI-H2023; first compound 0.0002 µM) of 0.233 and a relative viability (NCI-H2023; first compound 0.000632 µM) of 0.161. It also gave a relative viability (NCI-H2023; first compound 0.002 µM) of 0.102, a relative viability (NCI-H2023; first compound 0.006325 µM) of 0.0989 and a relative viability (NCI-H2023; first compound 0.02 µM) of 0.0701. The relative viability (NCI-H2085; first compound 0.0002 µM) was 0.539, the relative viability (NCI-H2085; first compound 0.000632 µM) was 0.612 and the relative viability (NCI-H2085; first compound 0.002 µM) was 0.552. For the same compound, the relative viability (NCI-H2085; first compound 0.006325 µM) was 0.459, the relative viability (NCI-H2085; first compound 0.02 µM) was 0.401 and the relative viability (NCI-H2342; first compound 0.0002 µM) was 0.72. The relative viability (NCI-H2342; first compound 0.000632 µM) was 0.72, the relative viability (NCI-H2342; first compound 0.002 µM) was 0.583 and the relative viability (NCI-H2342; first compound 0.006325 µM) was 0.519. The relative viability (NCI-H2342; first compound 0.02 µM) was 0.489, the relative viability (NCI-H358; first compound 0.0002 µM) was 0.183 and the relative viability (NCI-H358; first compound 0.000632 µM) was 0.189. It also gave a relative viability (NCI-H358; first compound 0.002 µM) of 0.18, a relative viability (NCI-H358; first compound 0.006325 µM) of 0.135 and a relative viability (NCI-H358; first compound 0.02 µM) of 0.116. It also gave a relative viability (NCI-H441; first compound 0.0002 µM) of 0.25, a relative viability (NCI-H441; first compound 0.000632 µM) of 0.234 and a relative viability (NCI-H441; first compound 0.002 µM) of 0.178. For the same compound, the relative viability (NCI-H441; first compound 0.006325 µM) was 0.2, the relative viability (NCI-H441; first compound 0.02 µM) was 0.163 and the relative viability (NCI-H460; first compound 0.0002 µM) was 0.443. It also gave a relative viability (NCI-H460; first compound 0.002 µM) of 0.061, a relative viability (NCI-H460; first compound 0.006325 µM) of 0.0383 and a relative viability (NCI-H460; first compound 0.02 µM) of 0.0286. It also gave a relative viability (NCI-H838; first compound 0.0002 µM) of 0.446, a relative viability (NCI-H838; first compound 0.000632 µM) of 0.496 and a relative viability (NCI-H838; first compound 0.002 µM) of 0.276. The relative viability (NCI-H838; first compound 0.006325 µM) was 0.181, the relative viability (NCI-H838; first compound 0.02 µM) was 0.159 and the relative viability (SK-LU-1; first compound 0.0002 µM) was 0.613. It also gave a relative viability (SK-LU-1; first compound 0.000632 µM) of 0.645, a relative viability (SK-LU-1; first compound 0.002 µM) of 0.524 and a relative viability (SK-LU-1; first compound 0.006325 µM) of 0.378. For the same compound, the relative viability (SK-LU-1; first compound 0.02 µM) was 0.269.
